Data from patent US20230266302A1, “SYNTHESIS AND USE OF N-BENZYL SULFONAMIDES” (THE UNIVERSITY OF TULSA, priority 2020, published 2023).

How the values were obtained:
Experiment in all cases: ATP level assay (CellTiter-Glo), percent of control
Assay type in all cases: cell-based
[1] = system: BxPC3 (pancreatic cancer); conditions: two hour incubation; for activity at 100 µM: Homo sapiens, BXPC-3, 2 h, compound alone, control DMSO, read-out: POC (percent of control) BxPC3
SkBr3 (breast cancer) = conditions: two hour incubation; for activity at 100 µM: Homo sapiens, SK-BR-3, 2 h, compound alone, control DMSO, read-out: POC (percent of control) SkBr3
NCI-H196 (lung cancer) = conditions: two hour incubation; for activity at 100 µM: NCI-H196, 2 h, compound alone, control DMSO, read-out: POC (percent of control) NCI-H196
[2] = system: MCF10A (non-cancerous breast); conditions: two hour incubation; for activity at 100 µM: Homo sapiens, MCF-10A, 2 h, compound alone, control DMSO, read-out: POC (percent of control) MCF10A
H293 (kidney cancer) = conditions: two hour incubation; for activity at 100 µM: 2 h, compound alone, control DMSO, read-out: POC (percent of control) H293
HeLa (cervical cancer) = conditions: two hour incubation; for activity at 100 µM: Homo sapiens, HeLa, 2 h, compound alone, control DMSO, read-out: POC (percent of control) HeLa
T47D (breast cancer) = conditions: two hour incubation; for activity at 100 µM: Homo sapiens, T47D, 2 h, compound alone, control DMSO, read-out: POC (percent of control) T47D
HDF (normal cells) = conditions: two hour incubation; for activity at 100 µM: 2 h, compound alone, control DMSO, read-out: POC (percent of control) HDF
MCF7 (breast cancer) = conditions: two hour incubation; for activity at 100 µM: Homo sapiens, MCF7, 2 h, compound alone, control DMSO, read-out: POC (percent of control) MCF7
PC3 (prostate cancer) = conditions: two hour incubation; for activity at 100 µM: 2 h, compound alone, control DMSO, read-out: POC (percent of control) PC3
MDA-MB (breast cancer) = conditions: two hour incubation; for activity at 100 µM: 2 h, compound alone, control DMSO, read-out: POC (percent of control) MDA-MB
[3] = compound 100 uM + 2DG (about 10-20 mM)
[4] = compound 100 uM + rotenone (approximately 1.25 μM)

## O=S(=O)(NCc1c[nH]c2ccccc12)c1ccc(C(F)(F)F)cc1 [Compound 24, N-(1H-indol-3-ylmethyl)-4-(trifluoromethyl)benzenesulfonamide]
[1]
  activity at 100 µM: 59%
[1]; [3]
  POC (percent of control) BxPC3: 43.1% of control
[1]; [4]
  POC (percent of control) BxPC3: 38.6% of control
SkBr3 (breast cancer)
  activity at 100 µM: 93.4%
SkBr3 (breast cancer); [3]
  POC (percent of control) SkBr3: 66.5% of control
SkBr3 (breast cancer); [4]
  POC (percent of control) SkBr3: 67.2% of control
NCI-H196 (lung cancer)
  activity at 100 µM: 172%
NCI-H196 (lung cancer); [3]
  POC (percent of control) NCI-H196: 54.6% of control
NCI-H196 (lung cancer); [4]
  POC (percent of control) NCI-H196: 73.3% of control
[2]
  activity at 100 µM: 85.1%
[2]; [3]
  POC (percent of control) MCF10A: 56.8% of control
[2]; [4]
  POC (percent of control) MCF10A: 59.1% of control
H293 (kidney cancer)
  activity at 100 µM: 62.6%
H293 (kidney cancer); [3]
  POC (percent of control) H293: 42.1% of control
H293 (kidney cancer); [4]
  POC (percent of control) H293: 47.6% of control
HeLa (cervical cancer)
  activity at 100 µM: 78.9%
HeLa (cervical cancer); [3]
  POC (percent of control) HeLa: 80.4% of control
HeLa (cervical cancer); [4]
  POC (percent of control) HeLa: 96.1% of control
T47D (breast cancer)
  activity at 100 µM: 70.6%
T47D (breast cancer); [3]
  POC (percent of control) T47D: 49.7% of control
T47D (breast cancer); [4]
  POC (percent of control) T47D: 65.5% of control
HDF (normal cells)
  activity at 100 µM: 57.2%
HDF (normal cells); [3]
  POC (percent of control) HDF: 65.6% of control
HDF (normal cells); [4]
  POC (percent of control) HDF: 95.7% of control
MCF7 (breast cancer)
  activity at 100 µM: 82.9%
MCF7 (breast cancer); [3]
  POC (percent of control) MCF7: 55.7% of control
MCF7 (breast cancer); [4]
  POC (percent of control) MCF7: 66.5% of control
PC3 (prostate cancer)
  activity at 100 µM: 54.6%
PC3 (prostate cancer); [3]
  POC (percent of control) PC3: 52.5% of control
PC3 (prostate cancer); [4]
  POC (percent of control) PC3: 47.5% of control
MDA-MB (breast cancer)
  activity at 100 µM: 96.4%
MDA-MB (breast cancer); [3]
  POC (percent of control) MDA-MB: 41.5% of control
MDA-MB (breast cancer); [4]
  POC (percent of control) MDA-MB: 49.7% of control

## Cc1ccc(S(=O)(=O)NCc2cnccn2)cc1 [Compound 16, 4-methyl-N-(pyrazin-2-ylmethyl)benzenesulfonamide]
[1]
  activity at 100 µM: 103%
[1]; [3]
  POC (percent of control) BxPC3: 95.4% of control
[1]; [4]
  POC (percent of control) BxPC3: 72.7% of control
SkBr3 (breast cancer)
  activity at 100 µM: 91.9%
SkBr3 (breast cancer); [3]
  POC (percent of control) SkBr3: 81.4% of control
SkBr3 (breast cancer); [4]
  POC (percent of control) SkBr3: 104% of control
NCI-H196 (lung cancer)
  activity at 100 µM: 110%
NCI-H196 (lung cancer); [3]
  POC (percent of control) NCI-H196: 99.2% of control
NCI-H196 (lung cancer); [4]
  POC (percent of control) NCI-H196: 97.6% of control
[2]
  activity at 100 µM: 113%
[2]; [3]
  POC (percent of control) MCF10A: 118.9% of control
[2]; [4]
  POC (percent of control) MCF10A: 86.2% of control
H293 (kidney cancer)
  activity at 100 µM: 80.1%
H293 (kidney cancer); [3]
  POC (percent of control) H293: 80.7% of control
H293 (kidney cancer); [4]
  POC (percent of control) H293: 81.6% of control
HeLa (cervical cancer)
  activity at 100 µM: 96.8%
HeLa (cervical cancer); [3]
  POC (percent of control) HeLa: 106.8% of control
HeLa (cervical cancer); [4]
  POC (percent of control) HeLa: 102.3% of control
T47D (breast cancer)
  activity at 100 µM: 91.1%
T47D (breast cancer); [3]
  POC (percent of control) T47D: 111.6% of control
T47D (breast cancer); [4]
  POC (percent of control) T47D: 99.3% of control
HDF (normal cells)
  activity at 100 µM: 94.3%
HDF (normal cells); [3]
  POC (percent of control) HDF: 95.6% of control
HDF (normal cells); [4]
  POC (percent of control) HDF: 98.3% of control
MCF7 (breast cancer)
  activity at 100 µM: 123%
MCF7 (breast cancer); [3]
  POC (percent of control) MCF7: 93.3% of control
MCF7 (breast cancer); [4]
  POC (percent of control) MCF7: 107.5% of control
PC3 (prostate cancer)
  activity at 100 µM: 109%
PC3 (prostate cancer); [3]
  POC (percent of control) PC3: 113.1% of control
PC3 (prostate cancer); [4]
  POC (percent of control) PC3: 95.1% of control
MDA-MB (breast cancer)
  activity at 100 µM: 106%
MDA-MB (breast cancer); [3]
  POC (percent of control) MDA-MB: 104.5% of control
MDA-MB (breast cancer); [4]
  POC (percent of control) MDA-MB: 92.7% of control

## O=[N+]([O-])c1cccc(S(=O)(=O)NCc2c[nH]c3ccccc23)c1 [Compound 25, N-(1H-indol-3-ylmethyl)-3-nitrobenzenesulfonamide]
[1]
  activity at 100 µM: 85.1%
[1]; [3]
  POC (percent of control) BxPC3: 71.5% of control
[1]; [4]
  POC (percent of control) BxPC3: 78.2% of control
SkBr3 (breast cancer)
  activity at 100 µM: 112%
SkBr3 (breast cancer); [3]
  POC (percent of control) SkBr3: 88.2% of control
SkBr3 (breast cancer); [4]
  POC (percent of control) SkBr3: 104.1% of control
NCI-H196 (lung cancer)
  activity at 100 µM: 305%
NCI-H196 (lung cancer); [3]
  POC (percent of control) NCI-H196: 92.9% of control
NCI-H196 (lung cancer); [4]
  POC (percent of control) NCI-H196: 83% of control
[2]
  activity at 100 µM: 95.7%
[2]; [3]
  POC (percent of control) MCF10A: 98.3% of control
[2]; [4]
  POC (percent of control) MCF10A: 80.4% of control
H293 (kidney cancer)
  activity at 100 µM: 99.7%
H293 (kidney cancer); [3]
  POC (percent of control) H293: 79.6% of control
H293 (kidney cancer); [4]
  POC (percent of control) H293: 68.8% of control
HeLa (cervical cancer)
  activity at 100 µM: 89.4%
HeLa (cervical cancer); [3]
  POC (percent of control) HeLa: 90.8% of control
HeLa (cervical cancer); [4]
  POC (percent of control) HeLa: 95.6% of control
T47D (breast cancer)
  activity at 100 µM: 94.4%
T47D (breast cancer); [3]
  POC (percent of control) T47D: 88.9% of control
T47D (breast cancer); [4]
  POC (percent of control) T47D: 86.7% of control
HDF (normal cells)
  activity at 100 µM: 79.2%
HDF (normal cells); [3]
  POC (percent of control) HDF: 93.6% of control
HDF (normal cells); [4]
  POC (percent of control) HDF: 95.5% of control
MCF7 (breast cancer)
  activity at 100 µM: 112%
MCF7 (breast cancer); [3]
  POC (percent of control) MCF7: 92.9% of control
MCF7 (breast cancer); [4]
  POC (percent of control) MCF7: 104.2% of control
PC3 (prostate cancer)
  activity at 100 µM: 60.2%
PC3 (prostate cancer); [3]
  POC (percent of control) PC3: 96.8% of control
PC3 (prostate cancer); [4]
  POC (percent of control) PC3: 80.1% of control
MDA-MB (breast cancer)
  activity at 100 µM: 103%
MDA-MB (breast cancer); [3]
  POC (percent of control) MDA-MB: 86.2% of control
MDA-MB (breast cancer); [4]
  POC (percent of control) MDA-MB: 88.8% of control

## O=S(=O)(NCc1cncnc1)c1ccccc1 [Compound 15, N-(pyrimidin-5-ylmethyl)benzenesulfonamide]
[1]
  activity at 100 µM: 98.8%
[1]; [3]
  POC (percent of control) BxPC3: 70.8% of control
[1]; [4]
  POC (percent of control) BxPC3: 88.9% of control
SkBr3 (breast cancer)
  activity at 100 µM: 117%
SkBr3 (breast cancer); [3]
  POC (percent of control) SkBr3: 123.3% of control
SkBr3 (breast cancer); [4]
  POC (percent of control) SkBr3: 93% of control
NCI-H196 (lung cancer)
  activity at 100 µM: 92.3%
NCI-H196 (lung cancer); [3]
  POC (percent of control) NCI-H196: 115.4% of control
NCI-H196 (lung cancer); [4]
  POC (percent of control) NCI-H196: 104.5% of control
[2]
  activity at 100 µM: 105%
[2]; [3]
  POC (percent of control) MCF10A: 122% of control
[2]; [4]
  POC (percent of control) MCF10A: 98.4% of control
H293 (kidney cancer)
  activity at 100 µM: 99.8%
H293 (kidney cancer); [3]
  POC (percent of control) H293: 74.7% of control
H293 (kidney cancer); [4]
  POC (percent of control) H293: 84.4% of control
HeLa (cervical cancer)
  activity at 100 µM: 103%
HeLa (cervical cancer); [3]
  POC (percent of control) HeLa: 113.9% of control
HeLa (cervical cancer); [4]
  POC (percent of control) HeLa: 102.2% of control
T47D (breast cancer)
  activity at 100 µM: 89.6%
T47D (breast cancer); [3]
  POC (percent of control) T47D: 82.5% of control
T47D (breast cancer); [4]
  POC (percent of control) T47D: 109.4% of control
HDF (normal cells)
  activity at 100 µM: 89.2%
HDF (normal cells); [3]
  POC (percent of control) HDF: 100.2% of control
HDF (normal cells); [4]
  POC (percent of control) HDF: 91.1% of control
MCF7 (breast cancer)
  activity at 100 µM: 148%
MCF7 (breast cancer); [3]
  POC (percent of control) MCF7: 103.4% of control
MCF7 (breast cancer); [4]
  POC (percent of control) MCF7: 96.4% of control
PC3 (prostate cancer)
  activity at 100 µM: 109%
PC3 (prostate cancer); [3]
  POC (percent of control) PC3: 117.6% of control
PC3 (prostate cancer); [4]
  POC (percent of control) PC3: 106.4% of control
MDA-MB (breast cancer)
  activity at 100 µM: 108%
MDA-MB (breast cancer); [3]
  POC (percent of control) MDA-MB: 91.2% of control
MDA-MB (breast cancer); [4]
  POC (percent of control) MDA-MB: 90.8% of control
